Test results from patent EP3042903B1, “Substituted hetero-bicyclic compounds, compositions and medicinal applications thereof” (Impetis Biosciences Ltd., priority 2015, dated 2016).

Assays:
[1] = molecular target: T1, Recombinant Human Bruton's tyrosine kinase (Btk) (Homo sapiens, UniProt Q06187); assay: Recombinant Human Bruton's tyrosine kinase (Btk) inhibition assay (HTRF KinEASE-TK); type: biochemical; settings: 20 ng/ml rhBtk, 77 µM ATP (KM), 1 µM TK-Biotin Substrate, 90 minutes; read-out: IC50 (nM) in recombinant hBTK assay
T1 construct: Full length human BTK (hBTK, Genbank#NM_000061.2) was cloned into pFastBac-HTB vector; 6XHis (N); made in house; host or cells: Sf9 cells (Bac-to-Bac baculovirus expression system)
T1 sequence (Q06187 whole entry): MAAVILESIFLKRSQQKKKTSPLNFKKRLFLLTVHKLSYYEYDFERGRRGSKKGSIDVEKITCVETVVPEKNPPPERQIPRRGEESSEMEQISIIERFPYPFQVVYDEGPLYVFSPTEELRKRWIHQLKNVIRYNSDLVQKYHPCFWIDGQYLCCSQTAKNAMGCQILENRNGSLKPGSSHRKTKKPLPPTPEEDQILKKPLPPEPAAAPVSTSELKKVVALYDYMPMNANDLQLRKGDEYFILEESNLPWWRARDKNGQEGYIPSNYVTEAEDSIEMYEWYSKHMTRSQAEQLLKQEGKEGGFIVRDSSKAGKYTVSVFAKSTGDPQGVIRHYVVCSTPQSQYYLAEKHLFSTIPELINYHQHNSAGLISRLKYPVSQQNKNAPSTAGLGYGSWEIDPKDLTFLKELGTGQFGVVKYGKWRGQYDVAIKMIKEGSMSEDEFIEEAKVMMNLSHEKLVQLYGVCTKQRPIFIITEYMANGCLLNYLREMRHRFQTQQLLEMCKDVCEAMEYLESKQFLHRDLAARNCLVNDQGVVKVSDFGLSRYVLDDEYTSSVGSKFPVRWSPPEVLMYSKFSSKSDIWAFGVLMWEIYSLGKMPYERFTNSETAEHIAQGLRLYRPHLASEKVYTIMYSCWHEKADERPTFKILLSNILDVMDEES
Description: Recombinant Human Bruton's tyrosine kinase (Btk) inhibition assay.
Full length human BTK (hBTK, Genbank#NM_000061.2) was cloned into pFastBac-HTB vector (Invitrogen, cat#10359-016). hBTK gene was expressed with N'-terminal 6XHis tag in Sf9 cells using Bac-to-Bac ^(R) Baculovirus expression system (Invitrogen, cat#10359-016) and the recombinant protein was purified by Ni-NTA method. The elution buffer for hBTK consisted of 50 mM Hepes pH 8.0, 300 mM NaCl, 10% glycerol, 1 mM dithiothreitol and 200 mM imidazole.
The inhibition assays were performed using the generic tyrosine kinase assay kit from Cis Bio (HTRF® KinEASE - TK™ # 62TK0PEB). The assay is based on the principle of fluorescence resonance energy transfer (FRET) between the Europium Cryptate labeled anti-phosphotyrosine antibody and streptavidin labeled fluorophore, XL-665. In an uninhibited kinase reaction the biotinylated peptide substrate (Tk-Biotin) gets phosphorylated at an intermediate tyrosine site which is captured by anti-phosphotyrosine antibody which eventually acts as a FRET donor. The streptavidin labeled XL-665 binds strongly to the Tk-Biotin substrate and act as a FRET acceptor. The resultant FRET signal is measured at 665 nm. A ratio of this specific fluorescence (665nm) to the background fluorescence (620nm), conferred by the free antibody, is directly proportional to the kinase activity.
The Btk inhibition assays were performed using 20 ng/ml of rhBtk in a final volume of 10µl reaction buffer containing 77 µM ATP and 1 µM TK-Biotin Substrate in 50 mM HEPES pH 7.0, 5mM MgCl2, 1mM DTT, 0.01% Tween 20 and 50nM SEB®; with a range of concentrations of the inhibitors. The kinase reaction was carried out at the KM of ATP (77 µM) as well as that of Tk-Biotin substrate (1 µM). After 90 minutes, the reaction was stopped by addition of SA-XL665 at a concentration of 62.5 nM in HTRF® detection buffer containing EDTA. Finally 5 µL of TK antibody-cryptate was added to the reaction and the plate was incubated for additional 60 minutes. The fluorescence was read using the FlexStation (Molecular Devices) with excitation at 340 nm and emissions at 620nm (for Cryptate) and 665nm (for FRET). A ratio of the 2 emissions was calculated for each well and expressed as follows: Specific signal = Ratio(Sample)−Ratio(Negative) [formula] Ratio = (665nm/620nm) × 10^4 [formula] Mean Ratio = ∑Ratio/3(triplicates) [formula]
For each data point, % inhibition is calculated based on uninhibited reaction which is considered as 100% activity over no enzyme or substrate controls. Dose response data is then fit using a four parameter logistic equation using GraphPad Prism 5 software to determine inhibition constant 50(IC50).

[2] = tested on: B cell activation as measured by CD69 expression in Human whole blood; assay: Inhibition of B cell activation as measured by CD69 expression in Human whole blood (flow cytometry); type: cell-based; settings: heparinized human whole blood, anti-IgD antibody 30 µg/mL, 4 hours, CD69 positive cells among CD20 B cells
Description: Inhibition of B cell activation as measured by CD69 expression in Human whole blood
To test the effect of BTK inhibitors in suppressing B-cell receptor (BCR) mediated activation of B cells, we developed a flow cytometry based assay to analyze CD69 expression in B cell population in human whole blood. Freshly collected heparinized human whole blood (60 µL/well) was dispensed in 96-well U bottom plate (Greiner), treated with the test compound at a concentrations ranging from 10 µM to 0.3 nM (half log dilutions). 0.5% DMSO (Sigma, cat#D2650) was used as vehicle control. The whole blood was incubated with compounds for 1 hour, followed by stimulation with anti-IgD antibody (Goat Anti-Human IgD Antibody - affinity purified, Bethyl laboratories, cat#A80-106A) at a final concentration of 30 µg/mL at 37°C and 5% CO2 for 4 hours. Subsequently, 45 µL blood was transferred to 1.5 ml microcentrifuge tubes and 1.2 µL of anti-CD20-PE.Cy5 (BD Biosciences, cat#561761)and 1.6 µL of anti-CD69-PE (eBioscience, cat#12-0691-83) antibody were added and mixed properly by gently tapping the tubes. Blood was stained for 20 minutes at room temperature (RT). After antibody incubation, 1 mL pre-warmed 1X Lyse/Fix solution (BD Biosciences, cat#558049) was added and cells were incubated at RT for 10 minutes. Then the tubes were centrifuged at 450xg for 5 minutes at RT and supernatant was removed. Pellet was disrupted by gentle tapping, cells were washed with 1 mL freshly prepared wash buffer and centrifuged at 450xg for 5 minutes at RT. Supernatant was removed completely before resuspending cells in 200 µl of wash buffer and proceeded for acquisition in Guava Easy Cyte Mini instrument. Acquisition was done with following laser settings: FSC Gain: X 16, FSC fine gain 100%, SSC: 893V, GRN: 663V, YLW: 649V, RED: 802V, Threshold Parameters Offset: FSC 0.73 V Threshold 300 units. The cells were diluted in such a way so that cell conc. should not exceed 500 cells/µL and at least 5000 cells were acquired. Viable lymphocytes were gated from the forward and side scatter profile of cells and B cells were sub-gated based on CD20-PE.Cy5 staining. Percent of CD69-PE positive cells were calculated among B lymphocyte sub-gate using Weasel software. Percent activity for each data point was calculated using following formula: [formula]
(§1) Percentage activity was fit using sigmoid dose response with variable slope logistic equation in GraphPad Prism 5 software to determine IC50.

[3] = tested on: B cell activation as measured by CD69 expression in mouse splenocytes; assay: Inhibition of B cell activation as measured by CD69 expression in mouse splenocytes (flow cytometry); type: cell-based; settings: C57/BL6 splenocytes, 3 µg/mL goat anti-mouse IgM, 18-20 hours, CD69 +ve cells within CD19; read-out: IC50 (nM) in B cell activation assay in Mouse spleenocytes
Text: Inhibition of B cell activation as measured by CD69 expression in mouse splenocytes:
To test the effect of BTK inhibitors in suppressing B-cell receptor (BCR) mediated activation of B cells, we developed a flow cytometry based assay to analyze CD69 expression in B cell population among total splenocyte from the mouse. C57/BL6 mouse spleens were dissected out and splenocytes were isolated by mincing the tissue with a syringe plunger followed by RBC lysis (0.85% ammonium chloride, (Qualigens,Cat #21405) and several washes in PBS. Finally, cell were cultured in culture medium [RPMI medium (Sigma, Cat R6504) with 10% FBS (Gibco - Cat #10270).
Test compounds were diluted half log starting from 2 mM in 100% DMSO (Sigma, cat#D2650) (200X). 1x10^5 splenocytes were incubated with 1 µL of diluted test compounds in 200 µL culture medium in a U-bottom 96 well plate (Greiner) at 37°C with 5% CO2 for 30 minutes. Control wells received 1 µL of 100% DMSO without any compound. The cells were stimulated with 3 µg/mL goat anti-mouse IgM (Sigma, cat#M8644) and incubated for 18-20 hours. After the stimulation, cells were washed in cold PBS with 1% FBS and stained with 1:100 dilution of anti-CD69-PE (eBioscience, cat#12-0691-83) and anti-CD19-PE.Cy5 (eBioscience, cat#15-0193-83) for 1 hour on ice. Then the cells were washed 3 times with PBS with 1% FBS and analyzed by Guava Easycyte Mini flow cytometer system (Millipore). Flow cytometry data were analyzed using Weasel software (WEHI, Melbourne). B cells were gated using CD19 marker. Expression of CD69 was analyzed as percentage of CD69 +ve cells within CD19. Percent activity for each data point was calculated using following formula: [formula]
as §1

O=C1c2c(F)cc(C3CC3)cc2OCCN1c1cc(F)cc(-c2ccnc3[nH]c(C4=CCN(C5COC5)CC4)cc23)c1CO [Example 8, 8-cyclopropyl-6-fluoro-4-[5-fluoro-2-(hydroxymethyl)-3-[2-[1-(oxetan-3-yl)-3,6-dihydro-2H-pyridin-4-yl]-1H-pyrrolo[2,3-b]pyridin-4-yl]phenyl]-2,3-dihydro-1,4-benzoxazepin-5-one]
IC50 [1]: 1.3 nM | IC50 [2]: 124 nM | IC50 [3]: 9 nM
